Assay results as given in patent publication US8273775B2, “Non-steroidal brassinosteroid mimetic” (priority 2006, dated 2012).

Experiments:
[1] = system: Arabidopsis thaliana seedlings; assay: Chemical genetics screening for brassinosteroid-related phenotypes; format: in vivo; details: young seedlings
Protocol: A commercial 10.000 compound library (DiverSet, ChemBridge, USA) was screened for brassinosteroid related phenotypes. Three to four Arabidopsis thaliana (L.) Heynh. seeds were sown in 96-well filterplates (Multiscreen HTS MSBVS1210, Millipore, USA) in liquid medium derived from standard Murashige and Skoog (MS) medium in a growth chamber under continuous light (110 μE.m^2. s^1 photosynthetically active radiation, supplied by cool-white fluorescent tungsten tubes; Osram) at 22° C. Three days after germination compounds were added to the 96-well plates at a final concentration of 50 μM. Plants were screened six days after germination for brassinosteroid-related phenotypes.
For further phenotypical analysis, all plants were grown on vertically oriented square plates (Greiner Labortechnik, Austria) with solid medium derived from standard Murashige and Skoog medium under the same conditions. For the hypocotyl-elongation assay, plants were grown in the dark at 22° C. under the same conditions.

[2] = system: bri1-116 plants grown in soil; assay: Rescue of soil-grown mutants by watering; format: in vivo, Arabidopsis thaliana; details: watered with 2 ml 300 μM ABRASIN per day
Protocol: FIG. 15: Phenotype rescue of brit-116 and cpd mutants. (A.) The mutant and Col-0 plants were germinated on MS+DMSO medium till day 5 and afterwards transferred on MS supplemented with DMSO, 1 μM BL or 30 μM ABRASIN until day 11. Treatment with BL rescues the cpd mutant phenotype but not bri1-116 while ABRASIN rescues both mutants. […] BL: brassinolide; BIK: abrasin.
Col-0, the null BR signaling bri1-116 (Friedrichsen et al., 2000) and BR biosynthetic cpd (Szekeres et al., 1996) mutants were subjected to phenotype rescue analysis by treatments with BL and ABRASIN. As a negative control, dimethylsulfoxide (DMSO) was used. Plants were germinated in vitro for 5 days on ½ MS containing DMSO medium and from day 6th to day 11th they were transferred on medium supplemented with BL (10 nM, 100 nM, 1000 nM), ABRASIN (5 μM, 10 μM, 30 μM) or DMSO. Cotyledons and leaves were collected for flowcytometric analysis at the 11th day (i.e. 6 days of treatments). Samples for β-glucuronidase (GUS) assay were taken on day 6th (i.e. 1 day treatments), 8th (i.e. 3 days treatments), 10th (i.e. 5 days treatments). Rescue of soil-grown mutants at different growth stages was checked by watering bri1-116 and cpd mutants with either BL or 2 ml 300 μM ABRASIN per day.

BIN2 kinase = target: T1, BIN2 kinase (Arabidopsis thaliana, UniProt Q39011); assay: In vitro kinase assay GST-BIN2 with MBP-BES1; format: biochemical
T1 sequence (Q39011 1-380): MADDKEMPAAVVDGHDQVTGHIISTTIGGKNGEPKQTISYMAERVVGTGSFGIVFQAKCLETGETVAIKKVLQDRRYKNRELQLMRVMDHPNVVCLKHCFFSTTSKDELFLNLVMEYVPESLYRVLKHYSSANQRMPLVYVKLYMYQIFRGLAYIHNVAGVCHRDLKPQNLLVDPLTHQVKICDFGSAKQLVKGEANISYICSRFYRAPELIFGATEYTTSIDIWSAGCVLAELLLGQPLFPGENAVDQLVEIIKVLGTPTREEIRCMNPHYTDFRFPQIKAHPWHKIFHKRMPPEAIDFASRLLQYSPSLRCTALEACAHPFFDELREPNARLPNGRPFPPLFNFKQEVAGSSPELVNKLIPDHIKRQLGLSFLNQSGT
Protocol: Coomassie staining was used as a loading control. b, Autoradiography of kinase assays with nine ASKs with MBP as a substrate in the presence or absence of 10 μM abrasin. The second member of group IV, ASKκ, had no kinase activity and was not included in the analysis. c, Autoradiography of kinase assays with AtMPK4, AtMPK6 and MBP as a substrate (left) and with AtAUR1 kinase and histone H3 as a substrate (right) in the presence or absence of 10 μM abrasin.
(§1) For in vitro kinase assays, MBP, MBP-BES1, and MBP-bes1 (20 ng each) were incubated with GST-BIN2 or GST-BRI1 kinase (200 ng each) in 20 μl of kinase buffer (20 mM Tris [pH 7.5], 100 mM NaCl, and 12 mM MgCl2) and 10 μCi ^32P-γATP. After incubation at 37° C. for 40 min, the reactions were stopped by adding 20 μl of 2×SDS buffer and boiling at 94° C. for 5 min. Proteins were resolved by a PAGE gel and phosphorylation was detected by exposing the dried gel to X-ray film. Proteins from 35S::bes1-GFP transgenic plants were used for phosphatase (CIP) treatments as described (Fankhauser et al., 1999).

ASKβ (group III) = target: T2, ASKβ (group III) (Arabidopsis thaliana, UniProt O23145); assay: ASK kinase assay with MBP as substrate, ASKβ; format: biochemical; details: 10 μM abrasin
T2 sequence (O23145 1-431): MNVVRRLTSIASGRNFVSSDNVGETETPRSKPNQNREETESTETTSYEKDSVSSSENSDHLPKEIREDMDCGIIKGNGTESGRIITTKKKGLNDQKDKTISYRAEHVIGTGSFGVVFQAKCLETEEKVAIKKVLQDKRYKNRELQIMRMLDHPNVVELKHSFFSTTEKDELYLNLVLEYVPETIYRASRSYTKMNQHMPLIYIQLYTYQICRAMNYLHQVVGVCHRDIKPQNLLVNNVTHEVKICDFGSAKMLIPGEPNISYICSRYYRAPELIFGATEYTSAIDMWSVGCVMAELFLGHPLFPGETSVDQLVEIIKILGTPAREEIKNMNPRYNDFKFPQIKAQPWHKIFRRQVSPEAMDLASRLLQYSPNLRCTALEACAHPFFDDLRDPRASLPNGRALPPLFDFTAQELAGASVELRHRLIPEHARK
Protocol: Coomassie staining was used as a loading control. b, Autoradiography of kinase assays with nine ASKs with MBP as a substrate in the presence or absence of 10 μM abrasin.
as §1
Besides BIN2, nine additional GSK-3 kinases (also designated ASKs for Arabidopsis SHAGGY-related kinases) divided into four subgroups (I-IV) have been identified in Arabidopsis (Jonak and Hirt, 2002; Yoo et al. 2006). To determine the specificity of abrasin, its effect on the kinase activity of all ASKs was analyzed with myelin basic protein (MBP) as a general substrate.

## O=C(O)CCC(=O)Nc1ccc(Br)cn1 [abrasin, 4-[(5-bromo-2-pyridinyl)amino]-4-oxobutanoic acid]
[1]
  elongation of leaves, petioles and the hypocotyl: strongly induced elongation of leaves, petioles and the hypocotyl in a dosage-dependent manner
[2]
  phenotype change of soil-grown mutant: sufficient to slightly change the phenotype of 1 month-old bri1-116 plants in a week
BIN2 kinase
  concentration at which inhibitory effect was already apparent: lower than 2.5 μM
BIN2 kinase; 0 to 10 μM
  BIN2 kinase activity towards its substrate BES1: strongly reduced BIN2 kinase activity towards its substrate BES1 in a dose-dependent manner
BIN2 kinase; at 10 μM
  inhibitory effect on BIN2 kinase activity: dramatic
ASKβ (group III)
  effect on kinase activity: not affected
